Series [1] can be described thus: Metabolic stability in human liver microsomes assessed as parent compound remaining at 10 uM measured after 30 mins in presence of NADPH by LC/MS/MS analysis. The class given is ADME, Microsome. The settings on record: read-out: Stabilty. In general terms: Microsomes from liver hold many membrane-bound enzymes, among them those of drug oxidation.
Series [2] in a line: Metabolic stability in human liver microsomes assessed as parent compound remaining at 10 uM measured after 5 mins in presence of NADPH by LC/MS/MS analysis. Type of series: ADME, Microsome. The settings on record: read-out: Stabilty.
The nature of series [3]: Metabolic stability in human liver microsomes assessed as parent compound remaining at 10 uM measured after 20 mins in presence of NADPH by LC/MS/MS analysis. Type of series: ADME, Microsome. The settings on record: read-out: Stabilty.
A short description of another series: physchem. The settings on record: phosphate buffer, pH 7.4.
Series [4] is described as follows: Half life in human liver microsomes at 10 uM in presence of NADPH by LC/MS/MS analysis. Type of series: ADME, Microsome.
A short description of series [5]: Intrinsic clearance in human liver microsomes at 10 uM incubated for 60 mins in presence of NADPH by LC/MS/MS analysis. Type of series: ADME, Microsome. The settings on record: read-out: CLH.
The nature of series [6]: Metabolic stability in human liver microsomes assessed as parent compound remaining at 10 uM measured after 60 mins in presence of NADPH by LC/MS/MS analysis. The settings on record: read-out: Stabilty. The class given is ADME, Microsome.
Series [7] in a line: Metabolic stability in human liver microsomes assessed as parent compound remaining at 10 uM measured after 10 mins in presence of NADPH by LC/MS/MS analysis. The class given is ADME, Microsome. The settings on record: read-out: Stabilty.

Molecules are shown by their SMILES. Converted amounts (≈) assume the structure as drawn.

Consider `COc1ccc(/C=C\c2cc(OC)c(OC)c(OC)c2)cc1O` [COMBRETASTATIN A4], for which the remaining at 0.5 h, 10 µM in series [1] turned out to be 17.5%. In addition, in series [2], the remaining at 5 min, 10 µM was 74.1%. Besides, in series [3], the remaining at 20 min, 10 µM is 37.2%. The solubility at 10 min in “physchem” is 1.04 µg/mL (≈ 3.29 µM). The half-life at 10 µM in series [4] was 13.9 min. Besides, the CLint scaled at 10 µM in series [5] came out at 89.5 mL/min/kg. Further, the remaining at 1 h, 10 µM in series [6] is 5.2%. In series [7], the remaining at 10 min, 10 µM amounted to 57.1%.
For the compound `COc1ccc([C@H]2[C@H](CF)C(=O)N2c2cc(OC)c(OC)c(OC)c2)cc1O`, the remaining at 0.5 h, 10 µM in series [1] turned out to be 90.9%. The remaining at 5 min, 10 µM in series [2] was found to be 85.6%. The remaining at 20 min, 10 µM in series [3] was 88.4%. Further, in the series “physchem”, the solubility at 10 min worked out at 41.1 µg/mL (≈ 105 µM). For the same compound, the half-life at 10 µM in series [4] is above 145 min. Moreover, the CLint scaled at 10 µM in series [5] was below 8.6 mL/min/kg. The remaining at 1 h, 10 µM in series [6] is 73%. Moreover, the remaining at 10 min, 10 µM in series [7] amounted to 91.6%.

By solubility is commonly meant the concentration that dissolves in the medium under given conditions. As usually defined, the half-life is how long it takes for the measured level to halve.

The record behind these values is ChEMBL document CHEMBL4765300, “Discovery of a chiral fluorinated azetidin-2-one as a tubulin polymerisation inhibitor with potent antitumour efficacy” (Eur J Med Chem, 2020).
